EC50 and IC50 data for 25 compounds are collected here from patent publication US8288379B2, “Thia-triaza-cyclopentazulenes” (Boehringer Ingelheim International GmbH, priority 2009, dated 2012).

The test system of experiment [1] is PC-3 cells. The experiment is described as follows: Inhibition of proliferation: CyQuant PC-3. Particulars: 72 h; PC-3 human prostate carcinoma cells, incubated with compounds for 3 days, CyQuant NF DNA dye. Format: cell-based. The protocol:
• GFP-4E-BP1 substrate; Invitrogen order no. PV4759 • Lanthascreen Tb-anti-p4E-BP1 (pThr46) Antibody Kit; Invitrogen order no. PV4758 • FRAP1 (mTOR) kinase; Invitrogen order no. […] Preparation of Reagents: Note: Thaw and keep mTOR, the substrate, ATP, and the antibody on ice prior to making working dilutions. Working dilutions of these components can be kept at room temperature for short periods of time the day of use. 1. Add 2 ml of 5× Assay Buffer to 8 ml water to prepare 10 ml of 1× Assay Buffer. Note: The concentration of 1× Assay Buffer is 50 mM HEPES pH 7.5, 0.01% Polysorbate 20, 1 mM EGTA, and 10 mM MnCl2. 2. Prepare Antibody/EDTA Solution by first adding 2.75 n1 of Tb-anti p4E-BP1 Antibody to 2397 n1 of LanthaScreen™ TR-FRET Dilution Buffer. Then, add 100 n1 of 0.5 M EDTA. 3. Prepare 4× Substrate/Enzyme Solution by first adding 72 n1 of GFP-4E-BP1 (22 nM) to 926 n1 of 1× Assay Buffer. Then, add 1.6 n1 of mTOR (0.45 mg/mL). 4. Prepare ATP Solution by adding 3.2 n1 of 10 mM ATP to 1997 n1 of 1× Assay Buffer. Serial Dilution of Inhibitors (16 Point Curve): Note: It is recommended that inhibitors be serially diluted in DMSO, then diluted to a 4× working concentration with 1× Assay Buffer. The below procedure describes dilution of compounds in a 96-well format prior to transfer to a 384-well format for kinase assays. This procedure calls for dilution of the compounds in 2 adjacent columns of a 96-well plate, which upon transfer to a single column of a 384-well plate with an 8-channel pipette will align the samples in order of concentration. 1. Dispense 40 n1 of DMSO to two adjacent columns of a 96 well plate per compound (e.g. columns 1 and 2). 2. Add 10 n1 of inhibitor stock (10 mM) to the first well of the first column (A1) and mix. 3. Remove 10 n1 from A1 and transfer to the adjacent well in the next column (B1) and mix. 4. Remove 10 n1 from B1 and transfer to the next well in the first column (B2) and mix. 5. Repeat this dilution pattern through well H1 and leave the last well (H2) as DMSO only. 6. Remove 4 n1 of diluted compounds and add to 96 n1 of 1× Assay Buffer in a 96-well plate making 4× compound dilutions. Kinase Reaction: 1. Add 2.5 μl of 4× compound dilutions from the first column of the 96-well plate to every other well of column 1 of a 384-well plate with an 8-channel pipette. Repeat for columns 2 and 3. 2. Add 2.5 n1 of 4× compound dilutions from the second column of the 96-well plate to the empty wells of column 1 of the 384-well plate with an 8-channel pipette. Repeat for columns 2 and 3. Note: This procedure aligns the compound dilutions in order of concentration. 3. Add 2.5 n1 of 4× Enzyme/Substrate Solution to all columns 1-6. 4. Preincubate for 30 min. at RT (shaker). 5. Add 5 n1 of ATP Solution to all wells to start reactions. 6. Shake the assay plate on a plate shaker for 30 seconds. 7. Incubate the assay plate for one hour at room temperature (20-25° C.). Stop Step and Fluorescence Detection: 1. Add 10 n1 of Antibody/EDTA Solution to each well in columns 1-9. 2. Shake the assay plate on a plate shaker for 30 seconds. 3. Incubate the assay plate for one hour at room temperature (20-25° C.). 4. Measure the GFP (FRET) and terbium (reference) emission signals on a fluorescence plate reader (e.g. Perkin Elmer Envision). Data Analysis: 1. Calculate the emission ratio for each sample by dividing the GFP (FRET) signal by the terbium (reference) signal. 2. Plot the concentration of each compound versus the emission ratio. Determine the concentration of compound required to reach 50% of the maximum signal (IC50). Determination of IC50 values can be obtained by curve fitting (sigmoidal dose response, variable slope) using Prism software from GraphPad). Inhibition of Proliferation: CyQuant PC-3 Description:
The CyQuant NF assay is based on measurement of cellular DNA content via fluorescent dye binding. Because cellular DNA content is highly regulated, it is closely proportional to cell number. […]

The target of experiment [2] is T1, FRAP1 (mTOR) kinase (Homo sapiens, UniProt P42345).
T1 construct: purchased Invitrogen PV4753
T1 sequence (P42345 1360-2549 limits assumed): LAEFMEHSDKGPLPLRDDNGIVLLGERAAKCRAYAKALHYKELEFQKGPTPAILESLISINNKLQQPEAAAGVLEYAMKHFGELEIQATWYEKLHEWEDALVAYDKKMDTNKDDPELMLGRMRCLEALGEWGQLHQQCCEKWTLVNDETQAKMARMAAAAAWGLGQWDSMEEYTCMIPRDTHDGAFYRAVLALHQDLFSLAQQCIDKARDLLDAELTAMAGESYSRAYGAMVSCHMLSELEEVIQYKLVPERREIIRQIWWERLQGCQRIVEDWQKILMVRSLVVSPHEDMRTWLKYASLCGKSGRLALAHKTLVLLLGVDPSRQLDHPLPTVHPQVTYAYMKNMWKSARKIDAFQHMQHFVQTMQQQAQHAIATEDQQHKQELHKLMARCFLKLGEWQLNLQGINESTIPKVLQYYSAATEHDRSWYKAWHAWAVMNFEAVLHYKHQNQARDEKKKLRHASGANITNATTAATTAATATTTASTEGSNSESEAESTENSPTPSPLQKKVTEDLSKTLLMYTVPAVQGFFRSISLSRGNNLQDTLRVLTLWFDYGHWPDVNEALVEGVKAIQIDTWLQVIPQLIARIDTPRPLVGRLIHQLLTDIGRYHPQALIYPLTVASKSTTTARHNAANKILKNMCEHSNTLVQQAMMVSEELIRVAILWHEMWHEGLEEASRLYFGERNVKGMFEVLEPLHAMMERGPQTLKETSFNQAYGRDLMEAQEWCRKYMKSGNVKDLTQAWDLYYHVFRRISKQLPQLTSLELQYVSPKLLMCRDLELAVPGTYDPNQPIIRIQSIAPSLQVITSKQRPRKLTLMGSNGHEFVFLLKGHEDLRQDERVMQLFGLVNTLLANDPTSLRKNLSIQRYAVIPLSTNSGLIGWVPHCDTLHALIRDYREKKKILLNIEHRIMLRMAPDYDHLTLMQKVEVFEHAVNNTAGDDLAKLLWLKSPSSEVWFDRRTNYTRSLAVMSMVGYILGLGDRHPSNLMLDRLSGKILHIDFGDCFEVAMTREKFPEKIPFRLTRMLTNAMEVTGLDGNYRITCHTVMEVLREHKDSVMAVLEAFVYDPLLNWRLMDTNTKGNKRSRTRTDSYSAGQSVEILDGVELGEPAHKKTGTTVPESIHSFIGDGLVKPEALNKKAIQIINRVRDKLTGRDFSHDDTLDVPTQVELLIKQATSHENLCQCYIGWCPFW
The experiment is described as follows: Inhibition of mTOR-induced p-4E-BP1 phosphorylation (TR-FRET mTOR Activity Kit; Invitrogen). It counts as biochemical. Particulars: 400 nM GFP-4E-BP1 substrate, ~150 ng/mL mTOR, one hour at room temperature. The method in brief: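 LanthaScreen TR-FRET: mTOR with GFP-4E-BP1 substrate in HEPES pH 7.5 buffer with 10 mM MnCl2, compound preincubated 30 min at RT, then ATP added and reacted 1 h at 20-25 °C. Stopped with EDTA plus Tb-anti-p4E-BP1 (pThr46), 1 h; GFP/Tb emission ratio over a 16-point curve, sigmoidal fit for IC50.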
(In general: TR-FRET usually uses a lanthanide donor and a delayed reading to cut background.)

For orientation: EC50 means the concentration giving half of the maximal effect. The term IC50 denotes the point on the concentration scale where inhibition reaches its midpoint.

Take `CNc1ccc(-c2nn(-c3ccccc3F)c3c2CCCc2nc(NC(=O)N(C)C)sc2-3)cn1` [Example B-43]: the EC50 in experiment [1] is 191 nM. Also, in experiment [2], inhibition was half-maximal at 141 nM (IC50).

Regarding `CC(=O)Nc1nc2c(s1)-c1c(c(-c3ccc(C)nc3)nn1-c1cccnc1C)CCC2` [Example B-137, N-[1-(2-Methyl-pyridin-3-yl)-3-(6-methyl-pyridin-3-yl)-1,4,5,6-tetrahydro-9-thia-1,2,7-triaza-cyclopent[e]azulen-8-yl]acetamide], in experiment [1], the EC50 came to 1240 nM. In experiment [2], this compound came in with a 50% inhibitory concentration (IC50) of 422 nM.

Take `CNc1ccc(-c2nn(C(C)C)c3c2CCCc2nc(NC(=O)N(C)C)sc2-3)cn1` [Example B-27]: in experiment [1], the EC50 amounted to 328 nM. Besides, in experiment [2], the IC50 came out at 501 nM.

With `CC(=O)Nc1nc2c(s1)-c1c(c(-c3c[nH]cn3)nn1-c1ccccc1C)CCC2` [Example B-112, N-[3-(1H-imidazol-4-yl)-1-o-tolyl-1,4,5,6-tetrahydro-9-thia-1,2,7-triaza-cyclopenta[e]azulen-8-yl]-acetamide], in experiment [1], the concentration giving a half-maximal response (EC50) was 110 nM. In experiment [2], this compound displayed an IC50 of 39 nM.

Turning to `NCC(=O)Nc1nc2c(s1)-c1c(c(-c3ccc(N)nc3)nn1-c1ccccc1F)CCC2` [Example B-101], the EC50 in experiment [1] amounted to 96 nM. The IC50 in experiment [2] turned out to be 22 nM.

For `CNc1ccc(-c2nn(-c3ccncc3C)c3c2CCCc2nc(NC(C)=O)sc2-3)cn1` [Example B-85, N-[3-(6-Methylamino-pyridin-3-yl)-1-(3-methyl-pyridin-4-yl)-1,4,5,6-tetrahydro-9-thia-1,2,7-triaza-cyclopenta[e]azulen-8-yl]-acetamide], in experiment [1], the EC50 turned out to be 76 nM. This compound displayed an IC50 in experiment [2] of 24 nM.

Turning to `CCNc1ccc(-c2nn(C(C)C)c3c2CCCc2nc(NC(C)=O)sc2-3)cn1` [Example B-01, N-[3-(6-Ethylamino-pyridin-3-yl)-1-isopropyl-1,4,5,6-tetrahydro-9-thia-1,2,7-triaza-cyclopenta[e]azulen-8-yl]-acetamide], the concentration giving a half-maximal response (EC50) in experiment [1] is 308 nM. The same compound yielded a half-inhibitory concentration (IC50) in experiment [2] of 151 nM.

Take `CNc1ccc(-c2nn(-c3ccccc3C)c3c2CCCc2nc(NC(=O)OC)sc2-3)cn1` [Example B-50, [3-(6-Methylamino-pyridin-3-yl)-1-o-tolyl-1,4,5,6-tetrahydro-9-thia-1,2,7-triaza-cyclopenta[e]azulen-8-yl]-carbamic acid methyl ester]: the half-maximal effective concentration (EC50) in experiment [1] came to 209 nM. The compound further registered an IC50 in experiment [2] of 30 nM.

With `CC(=O)Nc1nc2c(s1)-c1c(c(-c3ccc(N)nc3)nn1-c1ccccc1C)CCC2` [Example B-61, N-[3-(6-Amino-pyridin-3-yl)-1-o-tolyl-1,4,5,6-tetrahydro-9-thia-1,2,7-triaza-cyclopenta[e]azulen-8-yl]-acetamide], the concentration for a half-maximal effect (EC50) in experiment [1] was found to be 69 nM. Further, in experiment [2], half-maximal inhibition (IC50) required 15 nM.

Take `CCNc1ccc(-c2nn(-c3ccccc3C)c3c2CCCc2nc(NC(=O)NC)sc2-3)cn1` [Example B-68]: the concentration giving a half-maximal response (EC50) in experiment [1] is 604 nM. The IC50 in experiment [2] is 166 nM.

`CC(=O)Nc1nc2c(s1)-c1c(c(-c3ccc(N)nc3)nn1C1CCCOC1)CCC2` (centres unmarked) [Example B-65, N-[3-(6-Amino-pyridin-3-yl)-1-(tetrahydro-pyran-3-yl)-1,4,5,6-tetrahydro-9-thia-1,2,7-triaza-cyclopenta[e]azulen-8-yl]-acetamide]: the EC50 in experiment [1] turned out to be 75 nM. Besides, in experiment [2], 13 nM corresponded to half-maximal inhibition (IC50).

For `CCCn1nc(-c2ccc(N)nc2)c2c1-c1sc(NC(C)=O)nc1CCC2` [Example B-131, N-[3-(6-Amino-pyridin-3-yl)-1-propyl-1,4,5,6-tetrahydro-9-thia-1,2,7-triaza-cyclopenta[e]azulen-8-yl]-acetamide], the concentration for a half-maximal effect (EC50) in experiment [1] came out at 57 nM. In experiment [2], this compound showed a half-inhibitory concentration (IC50) of 17 nM.

With `C=CCn1nc(-c2ccc(C)nc2)c2c1-c1sc(NC(C)=O)nc1CCC2` [Example B-25], the half-maximal effective concentration (EC50) in experiment [1] worked out at 437 nM. The IC50 in experiment [2] worked out at 899 nM.

Regarding `CNc1ccc(-c2nn(-c3ccccc3C)c3c2CCCc2nc(NC(C)=O)sc2-3)cn1` [Example B-06, N-[3-(6-Methylamino-pyridin-3-yl)-1-o-tolyl-1,4,5,6-tetrahydro-9-thia-1,2,7-triaza-cyclopenta[e]azulen-8-yl]-acetamide], in experiment [1], the EC50 was determined as 66 nM. This compound registered an IC50 in experiment [2] of 36 nM.

Consider `CCNc1ccc(-c2nn(-c3ccccc3C)c3c2CCCc2nc(NC(=O)CCc4nccn4C)sc2-3)cn1` [Example B-72], for which, in experiment [1], the EC50 came to 298 nM. This compound returned a half-maximal inhibitory concentration (IC50) in experiment [2] of 84 nM.

Regarding `COCCC(=O)Nc1nc2c(s1)-c1c(c(-c3ccc(N)nc3)nn1-c1ccccc1C)CCC2` [Example B-103, N-[3-(6-Amino-pyridin-3-yl)-1-o-tolyl-1,4,5,6-tetrahydro-9-thia-1,2,7-triaza-cyclopenta[e]azulen-8-yl]-3-methoxy-propionamide], the EC50 in experiment [1] was 87 nM. The IC50 in experiment [2] came to 37 nM.

With `CC(=O)Nc1nc2c(s1)-c1c(c(-c3ccc(C)nc3)nn1-c1ccccc1C)CCC2` [Example B-11, N-[3-(6-Methyl-pyridin-3-yl)-1-o-tolyl-1,4,5,6-tetrahydro-9-thia-1,2,7-triaza-cyclopent[e]azulen-8-yl]-acetamide], in experiment [1], the EC50 amounted to 476 nM. In experiment [2], the IC50 came to 805 nM.

Consider `C=CCn1nc(-c2ccc(NC)nc2)c2c1-c1sc(NC(=O)N(C)C)nc1CCC2` [Example B-47], for which the EC50 in experiment [1] turned out to be 703 nM. The IC50 in experiment [2] stood at 734 nM.

On to `COCCC(=O)Nc1nc2c(s1)-c1c(c(-c3ccc(N)nc3)nn1CC(C)C)CCC2` [Example B-134], for which, in experiment [1], the EC50 came out at 143 nM. In addition, the midpoint of inhibition in experiment [2], the IC50, lay at 60 nM.

Turning to `CCNc1ccc(-c2nn(-c3ccccc3C)c3c2CCCc2nc(NC(=O)CCCN(C)C)sc2-3)cn1` [Example B-70], the EC50 in experiment [1] was 284 nM. Also, the half-inhibitory concentration (IC50) in experiment [2] came to 62 nM.

For `C=CCn1nc(-c2ccc(N)nc2)c2c1-c1sc(NC(=O)N(C)C)nc1CCC2` [Example B-52], the EC50 in experiment [1] turned out to be 326 nM. Moreover, in experiment [2], the IC50 came out at 146 nM.

On to `CCCn1nc(-c2ccc(C)nc2)c2c1-c1sc(NC(C)=O)nc1CCC2` [Example B-92], for which the EC50 in experiment [1] came out at 221 nM. In addition, in experiment [2], the concentration for half-maximal inhibition (IC50) amounted to 152 nM.

As to `CC(=O)Nc1nc2c(s1)-c1c(c(-c3c[nH]cn3)nn1-c1ccc(C(=O)N(C)C)cc1Cl)CCC2` [Example B-114], the concentration giving a half-maximal response (EC50) in experiment [1] came out at 382 nM. In experiment [2], this compound gave an IC50 of 4 nM.

For the compound `CCn1nc(-c2ccc(NC)nc2)c2c1-c1sc(NC(=O)N(C)C)nc1CCC2` [Example B-48], the half-maximal effective concentration (EC50) in experiment [1] turned out to be 710 nM. Besides, in experiment [2], the 50% inhibitory concentration (IC50) stood at 451 nM.

Regarding `COCC(=O)Nc1nc2c(s1)-c1c(c(-c3ccc(N)nc3)nn1-c1ccccc1F)CCC2` [Example E-18, N-[3-(6-Amino-pyridin-3-yl)-1-(2-fluoro-phenyl)-1,4,5,6-tetrahydro-9-thia-1,2,7-triaza-cyclopenta[e]azulen-8-yl]-2-methoxy-acetamide], in experiment [1], the 50% effective concentration (EC50) stood at 87 nM. Moreover, half-maximal inhibition in experiment [2] (IC50) required 59 nM.
